For one assay, the target named is T1, human SGLT1 (Homo sapiens, UniProt P13866).
T1 construct: expressed in transfected cells
T1 sequence (P13866 1-664): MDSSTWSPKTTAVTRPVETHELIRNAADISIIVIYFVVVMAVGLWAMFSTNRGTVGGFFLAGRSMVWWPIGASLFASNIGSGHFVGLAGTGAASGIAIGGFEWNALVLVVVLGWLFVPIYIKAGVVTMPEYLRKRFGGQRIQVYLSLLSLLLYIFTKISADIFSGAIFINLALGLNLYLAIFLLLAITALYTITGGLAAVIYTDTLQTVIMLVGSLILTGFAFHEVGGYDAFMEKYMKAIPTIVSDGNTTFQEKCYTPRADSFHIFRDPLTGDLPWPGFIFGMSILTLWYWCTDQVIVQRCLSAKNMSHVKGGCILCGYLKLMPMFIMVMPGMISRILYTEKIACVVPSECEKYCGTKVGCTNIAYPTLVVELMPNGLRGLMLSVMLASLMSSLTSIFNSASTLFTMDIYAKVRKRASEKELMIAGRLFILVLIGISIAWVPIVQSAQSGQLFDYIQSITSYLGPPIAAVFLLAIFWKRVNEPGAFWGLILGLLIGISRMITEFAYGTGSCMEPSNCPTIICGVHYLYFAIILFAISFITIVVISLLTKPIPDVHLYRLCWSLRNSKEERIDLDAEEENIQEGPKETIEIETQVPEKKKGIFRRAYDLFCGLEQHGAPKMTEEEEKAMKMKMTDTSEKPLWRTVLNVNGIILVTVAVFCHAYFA
The experiment in a line: Sodium-dependent 14C-methyl-α-D-glucopyranoside uptake in CHO-K1 cells stably expressing human SGLT1. It is filed as cell-based. The settings on record: for IC50: 14C-methyl-α-D-glucopyranoside uptake; for inhibition at 0.1 µM: compound at 0.1 μM. The procedure: (§1) SGLT1 and SGLT2 were cloned in form of cDNA from human small intestine (Genbank M24847), and from human kidney (Genbank M95549), respectively. Subsequently, each full cDNA was subcloned into pcDNA with each construct's integrity verified through follow-on sequencing. To generate CHO-K1 cells that stably express human SGLT1 or human SGLT2 CHO-K1 cells were transfected using DMRIE-C reagent (Life Technologies, Gaithersburg, Md.). Transfected cells were then selected in the presence of 500 μg/ml of the antibiotic G418 (Gibco-BRL, Grand Island, N.Y.). Individual clones were then characterized using the following cell-based assay for sodium-dependent glucose transport.
(§2) First, cell lines stably expressing human SGLT1 or SGLT2 were seeded at a density of 65,000 cells per well per 200 μl cell culture medium with 10 mM of NaButyrate (Aldrich Catalog No. 30341-0) in a 96-well flat bottom plate (COSTAR, Catalog No. 3903). For human SGLT1 or SGLT2 expressing CHO-K1 cells the culture medium comprised Ham's F-12 (Invitrogen Catalog No. 31765), Fetal Bovine Serum (Invitrogen Catalog No. 16000), G418 (Geneticin, Cellgro Catalog No. 30234-CI), Phlorizidin (Sigma Catalog No. P3449), DPBS (Cellgro Catalog No. 21030-CV), ^14C-methyl-α-D-glucopyranoside (Amersham Catalog No. CFB 76), and Methyl-α-D-glucopyranoside (Sigma Catalog No. M-9376).
(§3) The cells were allowed to incubate for 24 hours. Subsequently, the medium was aspirated from the plates and the cells were washed one time with 150 μl assay buffer and incubate 15 min with another 150 μl assay buffer which comprised 50 mM HEPES pH 7.4, 20 mM Tris Base, 5 mM KCl, 1 mM MgCl2, 1 mM CaCl2, and 137 mM NaCl. After removing the wash buffer, 40 μl assay buffer and 10 μl compound solution was added to each well, which was again allowed to incubate for 10 min.
(§4) Following the 10 min incubation, 10 μl of serial diluted Methyl-α-D-glucopyranoside (Sigma Catalog No. M-9376) containing 0.07 μCi ^14C-methyl-α-D-glucopyranoside (Amersham Catalog No. CFB 76) was added to the appropriate well and allowed to incubate for another 2 hours. ^14C-methyl-α-D-glucopyranoside (Sigma Catalog No. M-9376, St. Louis, Mo.) is a non-metabolizable glucose analog specific for sodium-dependent glucose transporters as previously described by H. Peng and J. E. Lever in “Post-transcriptional regulation of Na+/glucose cotransporter (SGLT1) gene expression in LLC-PK1 cells,” J. Biol. Chem. 270, 20536-42 (1995).
(§5) Next, the plates were twice washed with 150 μl of ice-cold DPBS (Cellgro Catalog No. 21030) that was then completely removed from the plates before adding 50 μl of MicroScint™-20 (Packard Catalog No. 6013621) to each well for a 20 min or longer incubation time.
(§6) Sodium-dependent ^14C-methyl-α-D-glucopyranoside uptake was quantified by measuring radioactivity. Plates were counted in a TopCount (Packard, Meriden, Conn.). Results are reported as the %-inhibition or IC50 value from a representative experiment. Variability for the functional assay was typically within 20%.

For a further assay, the target named is T2, human SGLT2 (Homo sapiens, UniProt P31639).
T2 construct: expressed in transfected cells
T2 sequence (P31639 1-672): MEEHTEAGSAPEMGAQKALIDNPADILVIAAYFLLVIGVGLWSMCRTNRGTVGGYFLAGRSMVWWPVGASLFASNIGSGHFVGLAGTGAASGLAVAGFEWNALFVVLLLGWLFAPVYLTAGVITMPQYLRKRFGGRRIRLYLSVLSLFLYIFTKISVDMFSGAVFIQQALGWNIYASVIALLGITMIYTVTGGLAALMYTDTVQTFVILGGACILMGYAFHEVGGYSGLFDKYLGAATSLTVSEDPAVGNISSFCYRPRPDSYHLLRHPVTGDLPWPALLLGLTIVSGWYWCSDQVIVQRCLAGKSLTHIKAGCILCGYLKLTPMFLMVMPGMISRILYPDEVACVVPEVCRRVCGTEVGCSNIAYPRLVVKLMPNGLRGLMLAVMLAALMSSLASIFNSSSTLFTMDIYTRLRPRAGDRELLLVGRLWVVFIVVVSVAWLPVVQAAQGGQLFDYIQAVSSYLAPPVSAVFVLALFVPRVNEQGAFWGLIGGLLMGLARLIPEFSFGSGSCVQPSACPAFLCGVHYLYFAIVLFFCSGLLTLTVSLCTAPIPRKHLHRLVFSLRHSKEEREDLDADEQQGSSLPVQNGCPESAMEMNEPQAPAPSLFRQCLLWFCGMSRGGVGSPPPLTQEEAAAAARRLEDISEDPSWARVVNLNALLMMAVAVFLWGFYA
The experiment in a line: Sodium-dependent 14C-methyl-α-D-glucopyranoside uptake in CHO-K1 cells stably expressing human SGLT2. It is filed as cell-based. The settings on record: for inhibition at 0.1 µM: compound at 0.1 μM; for IC50: 14C-methyl-α-D-glucopyranoside uptake. The procedure:
as §1, §2, §3, §4, §5, §6

The record followed here is patent US9012412B2, “Dual SGLT1/SGLT2 inhibitors” (Janssen Pharmaceutica NV, priority 2013, dated 2015).

As for `OC[C@@H]1C[C@H](O)[C@@H](O)[C@H](c2cc(Cc3cc4ccccc4s3)c(C(F)(F)F)cc2O)O1` [Cpd 16, (2S,3R,4S,6S)-2-(5-(benzo[b]thiophen-2-ylmethyl)-2-hydroxy-4-(trifluoromethyl)phenyl)-6-(hydroxymethyl)tetrahydro-2H-pyran-3,4-diol], the half-maximal inhibitory concentration (IC50) against human SGLT1 amounted to 240 nM. On human SGLT2, this compound gave an inhibition at 0.1 µM of 77%.
With `C=Cc1cc(O)c([C@@H]2O[C@H](CO)C[C@H](O)[C@H]2O)cc1Cc1cc2ccccc2s1` [Cpd 17, (2S,3R,4S,6S)-2-(5-(benzo[b]thiophen-2-ylmethyl)-2-hydroxy-4-vinylphenyl)-6-(hydroxymethyl)tetrahydro-2H-pyran-3,4-diol], the inhibition at 0.1 µM at human SGLT1 was determined as 58%; at human SGLT2, 64%.
On human SGLT1 (compound at 3 μM), `O=C(c1cc2ccccc2s1)c1cc([C@@H]2O[C@H](CO)C[C@H](O)[C@H]2O)c(O)cc1O` [Cpd 18, benzo[b]thiophen-2-yl(5-((2S,3R,4S,6S)-3,4-dihydroxy-6-(hydroxymethyl)tetrahydro-2H-pyran-2-yl)-2,4-dihydroxyphenyl)methanone] gave an inhibition at 3 µM of 19%. This compound registered an inhibition at 0.3 µM against human SGLT2 (compound at 0.3 μM) of 13%.
On to `Cc1cc(O)c([C@@H]2O[C@H](CO)C[C@H](O)[C@H]2O)cc1Cc1cc2cc(F)ccc2s1` [Cpd 19, (2S,3R,4S,6S)-2-(5-((5-fluorobenzo[b]thiophen-2-yl)methyl)-2-hydroxy-4-methylphenyl)-6-(hydroxymethyl)tetrahydro-2H-pyran-3,4-diol], for which the 50% inhibitory concentration (IC50) against human SGLT1 stood at 220 nM; against human SGLT2, 41 nM.
For the compound `Cc1cc(O)c([C@@H]2O[C@H](CO)C[C@H](O)[C@H]2O)cc1Cc1cc2cc(Cl)ccc2s1` [Cpd 20, (2S,3R,4S,6S)-2-(5-((5-chlorobenzo[b]thiophen-2-yl)methyl)-2-hydroxy-4-methylphenyl)-6-(hydroxymethyl)tetrahydro-2H-pyran-3,4-diol], the values for the inhibition at 0.1 µM against human SGLT1 and against human SGLT2 were 20% and 84%, respectively.
For the compound `COc1c(Cc2cc3ccccc3s2)cc([C@@H]2O[C@H](CO)C[C@H](O)[C@H]2O)c(O)c1F` [Cpd 21, (2S,3R,4S,6S)-2-(5-(benzo[b]thiophen-2-ylmethyl)-3-fluoro-2-hydroxy-4-methoxyphenyl)-6-(hydroxymethyl)tetrahydro-2H-pyran-3,4-diol], the inhibition at 0.1 µM was found to be 26% against human SGLT1 and 78% against human SGLT2.
`Cc1c(Cc2cc3ccccc3s2)cc([C@@H]2O[C@H](CO)C[C@H](O)[C@H]2O)c(O)c1C` [Cpd 22, (2S,3R,4S,6S)-2-(5-(benzo[b]thiophen-2-ylmethyl)-2-hydroxy-3,4-dimethylphenyl)-6-(hydroxymethyl)tetrahydro-2H-pyran-3,4-diol]: the inhibition at 0.1 µM at human SGLT1 was found to be 39%; against human SGLT2 it was 67%.
Take `COc1c([C@@H]2O[C@H](CO)C[C@H](O)[C@H]2O)cc(Cc2cc3ccccc3s2)c(C)c1C` [Cpd 23, (2S,3R,4S,6S)-2-(5-(benzo[b]thiophen-2-ylmethyl)-2-methoxy-3,4-dimethylphenyl)-6-(hydroxymethyl)tetrahydro-2H-pyran-3,4-diol]: the inhibition at 0.1 µM on human SGLT1 is 50%; at human SGLT2, 70%.
Turning to `C=CCOc1c([C@@H]2O[C@H](CO)C[C@H](O)[C@H]2O)cc(Cc2cc3ccccc3s2)c(C)c1C` [Cpd 24, (2S,3R,4S,6S)-2-(2-(allyloxy)-5-(benzo[b]thiophen-2-ylmethyl)-3,4-dimethylphenyl)-6-(hydroxymethyl)tetrahydro-2H-pyran-3,4-diol], the inhibition at 0.1 µM against human SGLT1 came to 31%; against human SGLT2, 40%.
Regarding `Cc1cc(Br)c([C@@H]2O[C@H](CO)C[C@H](O)[C@H]2O)cc1Cc1cc2ccccc2s1` [Cpd 25, (2S,3R,4S,6S)-2-(5-(benzo[b]thiophen-2-ylmethyl)-2-bromo-4-methylphenyl)-6-(hydroxymethyl)tetrahydro-2H-pyran-3,4-diol], the inhibition at 0.1 µM worked out at 26% at human SGLT1 and 47% on human SGLT2.
For `Cc1cc(-c2ccc[nH]2)c([C@@H]2O[C@H](CO)C[C@H](O)[C@H]2O)cc1Cc1cc2ccccc2s1` [Cpd 26, (2S,3R,4S,6S)-2-(5-(benzo[b]thiophen-2-ylmethyl)-4-methyl-2-(1H-pyrrol-2-yl)phenyl)-6-(hydroxymethyl)tetrahydro-2H-pyran-3,4-diol], the results for the inhibition at 0.1 µM against human SGLT1 and on human SGLT2 were 33% and 57%, respectively.
Turning to `Cc1cc(-c2cc[nH]n2)c([C@@H]2O[C@H](CO)C[C@H](O)[C@H]2O)cc1Cc1cc2ccccc2s1` [Cpd 27, (2S,3R,4S,6S)-2-(5-(benzo[b]thiophen-2-ylmethyl)-4-methyl-2-(1H-pyrazol-3-yl)phenyl)-6-(hydroxymethyl)tetrahydro-2H-pyran-3,4-diol], the 50% inhibitory concentration (IC50) against human SGLT1 came to 734 nM; at human SGLT2, 10 nM.
In the case of `Cc1cc(O)c([C@@H]2O[C@H](CO)C[C@H](O)[C@H]2O)cc1Cc1cc2ccccc2o1` [Cpd 28, (2S,3R,4S,6S)-2-(5-(benzofuran-2-ylmethyl)-2-hydroxy-4-methylphenyl)-6-(hydroxymethyl)tetrahydro-2H-pyran-3,4-diol], the inhibition at 0.1 µM against human SGLT1 amounted to 33%; on human SGLT2, 69%.
Take `Cc1cc(O)c([C@@H]2O[C@H](CO)C[C@H](O)[C@H]2O)cc1Cc1nc2ccccc2s1` [Cpd 29, (2S,3R,4S,6S)-2-(5-(benzo[d]thiazol-2-ylmethyl)-2-hydroxy-4-methylphenyl)-6-(hydroxymethyl)tetrahydro-2H-pyran-3,4-diol]: the inhibition at 0.1 µM against human SGLT1 amounted to 22%; at human SGLT2, 41%.
The matching figures for `Cc1cc(Br)c([C@@H]2O[C@H](CO)C[C@H](O)[C@H]2O)cc1Cc1ccc(-c2ccc(F)cc2)s1` [Cpd 30, (2S,3R,4S,6S)-2-(2-bromo-5-((5-(4-fluorophenyl)thiophen-2-yl)methyl)-4-methylphenyl)-6-(hydroxymethyl)tetrahydro-2H-pyran-3,4-diol]: 44% and 73%.
